Paper PMC6026870, “Selective induction of cancer cell death by VDAC1‐based peptides and their potential use in cancer therapy” (Molecular Oncology, 2018)

How the values were obtained:
[1] = test system: A549 cells (HK‐I in cytosolic fraction); assay: Mitochondria‐bound HK detachment, cell fractionation and immunoblotting; assay type: cell-based, human; conditions: A549, peptide 3, 5, 10 μM, 3 h; digitonin […]; immunoblot (Fig. 4E)
Procedure: Peptide‐induced HK detachment from mitochondria to the cytosol was also analyzed by immunoblotting. […] Samples were centrifuged at 12 000 g at 4 °C for 10 min, and the obtained supernatants (cytosolic fraction) and pellets (mitochondria) were analyzed by immunoblotting using anti‐HK‐I, anti‐VDAC1, and anti‐GAPDH antibodies, and then with secondary HRP‐conjugated antibodies.

HeLa cells = assay: Cellular ATP levels, luciferase‐based assay (CellTiter‐Glo); assay type: cell-based, human; conditions: 3 h, percentage of control, mean ± SE (n = 3) (Fig. 4F)
Procedure: Cellular ATP levels were estimated using a luciferase‐based assay (CellTiter‐Glo; Promega). […] ATP levels were assayed according to the manufacturer's protocol, and luminescence was recorded using an Infinite M1000 plate reader (Tecan, Männedorf, Switzerland).

HK‐I = target: T1, HK‐I (Homo sapiens, UniProt P19367); assay: HK activity assay with purified recombinant HK‐I; assay type: biochemical; conditions: HK‐I 13 µg/ml pre‐incubated with peptide; 1 mM ATP, G6PDH‐coupled, absorbance at 340 nm (Fig. S3B)
T1 construct: His; made in house; host or cells: Escherichia coli BL21
T1 sequence (P19367 1-917): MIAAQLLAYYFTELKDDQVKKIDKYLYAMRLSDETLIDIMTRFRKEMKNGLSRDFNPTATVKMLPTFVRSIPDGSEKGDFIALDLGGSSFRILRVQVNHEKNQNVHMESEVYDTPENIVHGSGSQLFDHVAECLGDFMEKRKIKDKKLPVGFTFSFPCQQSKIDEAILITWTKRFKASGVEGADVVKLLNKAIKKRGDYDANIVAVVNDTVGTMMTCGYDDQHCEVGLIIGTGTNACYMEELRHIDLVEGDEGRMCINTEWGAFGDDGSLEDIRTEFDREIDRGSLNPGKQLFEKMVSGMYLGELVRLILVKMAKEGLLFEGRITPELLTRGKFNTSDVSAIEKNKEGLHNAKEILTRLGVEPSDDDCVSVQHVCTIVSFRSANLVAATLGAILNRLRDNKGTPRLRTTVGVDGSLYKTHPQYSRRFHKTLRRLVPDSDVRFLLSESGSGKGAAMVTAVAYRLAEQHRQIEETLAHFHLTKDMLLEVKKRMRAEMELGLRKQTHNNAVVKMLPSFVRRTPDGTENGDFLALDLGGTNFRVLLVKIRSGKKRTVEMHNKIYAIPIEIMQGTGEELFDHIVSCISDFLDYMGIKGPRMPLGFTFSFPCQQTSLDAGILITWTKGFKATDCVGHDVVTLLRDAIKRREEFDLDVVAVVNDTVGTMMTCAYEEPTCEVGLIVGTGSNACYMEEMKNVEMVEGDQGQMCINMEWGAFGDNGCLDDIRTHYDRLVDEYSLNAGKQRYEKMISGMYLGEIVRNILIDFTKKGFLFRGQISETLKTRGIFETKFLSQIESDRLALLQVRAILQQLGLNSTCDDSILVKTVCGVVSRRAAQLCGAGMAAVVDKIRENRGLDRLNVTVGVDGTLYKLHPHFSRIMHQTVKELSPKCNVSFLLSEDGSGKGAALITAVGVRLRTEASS
Procedure: Human HK‐I and HK‐II were cloned into plasmid pET‐His DNA and expressed in Escherichia coli BL21 upon IPTG induction. HK was purified from lysed cells using a HiTrap nickel column (GE Healthcare). Following dialysis, the imidazole‐eluted protein was further purified using a Blue HiTrap column (GE Healthcare). HK was eluted using 10 mM glucose, 20 mM Tris/HCl (pH 8.5), 20% glycerol, and 1.5 mM glucose‐6‐phosphate. Fractions were analyzed by SDS/PAGE and tested for HK activity. The purified active fractions were combined and stored in aliquots at −80 °C.
Change in absorbance at 340 nm (NADH production) was spectrophotometrically measured following addition of 1 mM ATP and 0.05 unit·mL^−1 glucose‐6‐phosphate dehydrogenase.
Purified HK-I (13 µg/ml) was pre-incubated with the indicated concentrations of Tf-D-LP4 (●) or R-Tf-D-LP4 (○) and assayed for HK activity as described in Materials and Methods. Change in absorbance at 340 nm (NADH production) was spectrophotometrically measured following addition of 1 mM ATP, and 0.05 unit/ml glucose-6-phosphate dehydrogenase. C. Tf-D-LP4 and R-Tf-D-LP4 solubility. The peptides were dissolved to a final concentration of 5 mM in 5% DMSO and diluted to 1.1 mM in HBSS. Peptide absorbance in the supernatant was measured at 280 nm following centrifugation at 12,000g before and after 75 min incubation at 24 °C. […] Cell death was analyzed using PI and FACS analysis. […]

U‐87MG = assay: Cell death, PI staining and FACS; assay type: cell-based; conditions: anti‐TfR antibodies (1 : 250) 2 h, then peptide 5 μM 3 h, n = 2 (Fig. 3C)
Procedure: Leukemia cells, U‐937, MEC‐1 cells (4 × 10^5 or 8 × 10^5 cells/sample, respectively), as well as other leukemia or suspension cell lines, were incubated in 200 μL serum‐free medium with various concentrations of the peptide for 90 min at 23–25 °C, collected by centrifugation (500 g, 5 min), washed with PBS, and analyzed for cell death. Adherent cells (6 × 10^5 mL^−1 at 70–80% confluence) were incubated with the peptide of interest in 500 μL serum‐free recommended culture medium for 3–6 h at 37 °C and 5% CO2. The cells were then trypsinized, centrifuged (1500 g, 5 min), washed with PBS, and analyzed for the desired activity. Following peptide treatment, cells were subjected to cell death analysis. […] PRO software (BD Biosciences, San Jose, CA, USA).
For each line, cells were incubated with different peptide concentrations, and cell death was determined by PI staining and FACS analysis (Figs 1, 2, 3).

A549 cells = assay: Apoptosis, acridine orange/ethidium bromide staining; assay type: cell-based, human; conditions: A549, 3 h; quantitation, mean ± SE (n = 3) (Fig. 5E)
Procedure: For PI and annexin V–FITC staining, A549 or MDA‐MB‐231 cells, untreated or treated with VDAC1‐based peptides, were collected (1500 g for 5 min), washed, and resuspended in 200 μL binding buffer (10 mM HEPES/NaOH (pH 7.4), 140 mM NaCl, and 2.5 mM CaCl2). Annexin V–FITC staining was performed according to the recommended protocol. Cells were then washed once with binding buffer and resuspended in 200 μL binding buffer, to which PI was added immediately before flow cytometric analysis. At least 10 000 events were collected, recorded on a dot plot, and analyzed by flow cytometer. Acridine orange/ethidium bromide staining was carried as described previously (Zaid et al., 2005), with cells visualized by fluorescence microscopy (Olympus LX2‐KSP, Tokyo, Japan), and images were captured with a CCD camera. About 200 cells were counted for each experiment.

SMILES: CC[C@H](C)[C@H](NC(=O)[C@H](C)NC(=O)[C@@H](N)Cc1c[nH]cn1)C(=O)N[C@@H](Cc1ccc(O)cc1)C(=O)N1CCC[C@H]1C(=O)N[C@@H](CCCNC(=N)N)C(=O)N[C@@H](Cc1c[nH]cn1)C(=O)N[C@H](CO)C(=O)N[C@H](Cc1c[nH]c2ccccc12)C(=O)N[C@@H](C(=O)N[C@H](Cc1c[nH]c2ccccc12)C(=O)N[C@H](CCC(=O)O)C(=O)N[C@H](CCCCN)C(=O)N[C@H](CCCCN)C(=O)N[C@H](CC(C)C)C(=O)N[C@H](CCC(=O)O)C(=O)N[C@@H](C(=O)N[C@H](C)C(=O)N[C@@H](C(=O)N[C@H](CC(N)=O)C(=O)N[C@H](CC(C)C)C(=O)N[C@H](C)C(=O)N[C@H](Cc1c[nH]c2ccccc12)C(=O)N[C@@H](C(=O)N[C@H](C)C(=O)NCC(=O)N[C@H](CC(N)=O)C(=O)N[C@H](CO)C(=O)N[C@H](CC(N)=O)C(=O)N[C@H](CCCCN)C(=O)N[C@H](Cc1c[nH]c2ccccc12)C(=O)N[C@@H](C(=O)N[C@H](Cc1c[nH]c2ccccc12)C(=O)N[C@H](CCCCN)C(=O)O)[C@H](C)O)[C@H](C)O)C(C)C)[C@H](C)O)[C@H](C)O [Tf‐D‐LP4]
- increase in HK in the cytosolic fraction [1]: about twofold
- decrease of cellular ATP levels (HeLa cells): about 40%
- inhibition of purified HK‐I activity (HK‐I): but not Tf-D-LP4 inhibits HK-I activity
- decrease in peptide‐induced cell death in anti‐TfR antibody‐treated cells (U‐87MG): about twofold
- apoptotic cell death (acridine orange/ethidium bromide) (A549 cells): over 70%
